# Results published in paper PMC3261198, “Mitochondrial Apoptosis and FAK Signaling Disruption by a Novel Histone Deacetylase Inhibitor, HTPB, in Antitumor and Antimetastatic Mouse Models” (PLoS ONE, 2012).
# How the values were obtained:
# [1] = tested on: A549 lung tumor xenograft; assay: In vivo anti-tumor growth assay; settings: for tumor growth inhibition compared with DMSO control / tumor growth inhibition: 3 days/week for three weeks; for tumor growth inhibition: oral
# [2] = tested on: H1299 cells; settings: H1299, 5 µM, 24 hours
# [3] = target: HDAC6 (Homo sapiens, UniProt Q9UBN7); settings: HTPB 1 or 2 µM; class II HDAC from A549 cells
# HDAC6, sequence (Q9UBN7 whole entry): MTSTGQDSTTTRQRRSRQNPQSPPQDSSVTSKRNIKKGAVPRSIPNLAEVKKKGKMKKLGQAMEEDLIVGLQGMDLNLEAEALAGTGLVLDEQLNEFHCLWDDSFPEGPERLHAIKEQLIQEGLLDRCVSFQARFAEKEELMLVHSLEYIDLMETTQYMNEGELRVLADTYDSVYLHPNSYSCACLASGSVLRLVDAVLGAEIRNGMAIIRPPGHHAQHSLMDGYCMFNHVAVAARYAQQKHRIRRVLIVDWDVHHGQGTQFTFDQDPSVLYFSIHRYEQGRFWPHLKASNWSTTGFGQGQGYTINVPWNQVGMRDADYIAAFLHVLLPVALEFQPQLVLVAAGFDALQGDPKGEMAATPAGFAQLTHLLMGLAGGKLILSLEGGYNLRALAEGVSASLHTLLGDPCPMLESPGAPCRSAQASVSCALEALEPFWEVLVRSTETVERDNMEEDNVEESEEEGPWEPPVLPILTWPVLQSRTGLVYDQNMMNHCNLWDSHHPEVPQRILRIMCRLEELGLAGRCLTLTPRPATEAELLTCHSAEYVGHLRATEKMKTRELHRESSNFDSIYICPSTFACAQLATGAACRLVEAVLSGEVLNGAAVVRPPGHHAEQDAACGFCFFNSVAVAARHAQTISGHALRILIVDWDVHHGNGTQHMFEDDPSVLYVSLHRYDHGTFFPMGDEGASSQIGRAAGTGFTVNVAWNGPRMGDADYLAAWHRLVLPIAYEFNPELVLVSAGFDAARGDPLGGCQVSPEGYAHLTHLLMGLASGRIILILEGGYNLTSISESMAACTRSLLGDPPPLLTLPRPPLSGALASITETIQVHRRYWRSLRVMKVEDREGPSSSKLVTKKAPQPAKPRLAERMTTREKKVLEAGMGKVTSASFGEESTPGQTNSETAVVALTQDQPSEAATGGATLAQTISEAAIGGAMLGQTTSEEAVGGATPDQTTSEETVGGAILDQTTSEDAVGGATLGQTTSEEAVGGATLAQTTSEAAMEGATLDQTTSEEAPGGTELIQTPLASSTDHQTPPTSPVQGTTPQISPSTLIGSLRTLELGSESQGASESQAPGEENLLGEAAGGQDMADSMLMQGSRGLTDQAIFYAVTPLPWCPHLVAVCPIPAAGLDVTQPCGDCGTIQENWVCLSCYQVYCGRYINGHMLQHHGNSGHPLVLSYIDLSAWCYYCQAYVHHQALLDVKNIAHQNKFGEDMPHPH
# [4] = target: HDAC4 (Homo sapiens, UniProt P56524); settings: HTPB 1 or 2 µM; class II HDAC from A549 cells
# [5] = in vitro; settings: human, H1299 cells
# [6] = tested on: lung metastasis of 4T1-luc cells; settings: cells pre-treated with 1.92 µM for 48 hours, injected via tail vein, imaged 13 days
# [7] = tested on: MMP-2; settings: A549 and H1299 cells, 2.5 µM, 48 hours
# [8] = in vitro; settings: human, A549 cells
# [9] = target: HDAC11 (Homo sapiens, UniProt Q96DB2); settings: HTPB 1 or 2 µM; class IV HDAC from A549 cells
# HDAC11, sequence (Q96DB2 whole entry): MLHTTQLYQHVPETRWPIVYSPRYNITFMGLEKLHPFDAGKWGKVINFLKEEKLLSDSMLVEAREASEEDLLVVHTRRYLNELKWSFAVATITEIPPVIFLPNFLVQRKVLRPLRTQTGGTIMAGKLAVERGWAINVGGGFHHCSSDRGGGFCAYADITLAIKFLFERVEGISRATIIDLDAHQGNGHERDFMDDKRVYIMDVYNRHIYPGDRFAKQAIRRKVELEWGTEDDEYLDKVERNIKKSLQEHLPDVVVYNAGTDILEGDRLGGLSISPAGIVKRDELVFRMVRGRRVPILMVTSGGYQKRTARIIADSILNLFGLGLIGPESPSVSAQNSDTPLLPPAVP
# [10] = tested on: RhoA; settings: A549 and H1299 cells, 2.5 µM, 48 hours
# [11] = target: HDAC1 (Homo sapiens, UniProt Q13547); settings: HTPB 1 or 2 µM; class I HDAC from A549 cells
# HDAC1, sequence (Q13547 whole entry): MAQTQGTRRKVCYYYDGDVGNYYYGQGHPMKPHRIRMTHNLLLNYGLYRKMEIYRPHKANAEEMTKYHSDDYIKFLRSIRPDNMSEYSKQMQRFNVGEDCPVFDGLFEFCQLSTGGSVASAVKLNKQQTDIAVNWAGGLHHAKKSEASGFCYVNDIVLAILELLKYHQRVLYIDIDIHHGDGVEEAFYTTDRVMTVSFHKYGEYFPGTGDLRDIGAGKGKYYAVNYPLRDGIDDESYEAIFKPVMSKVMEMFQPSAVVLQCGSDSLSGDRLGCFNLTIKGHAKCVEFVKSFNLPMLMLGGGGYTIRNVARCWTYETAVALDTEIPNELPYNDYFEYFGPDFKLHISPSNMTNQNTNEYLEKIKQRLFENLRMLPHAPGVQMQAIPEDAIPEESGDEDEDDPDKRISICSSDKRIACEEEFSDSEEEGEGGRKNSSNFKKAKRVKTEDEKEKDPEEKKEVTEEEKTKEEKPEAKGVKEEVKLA
# [12] = tested on: IMR90 normal lung cell line; settings: 0.5–10 µM, 48 hours, MTT
# [13] = 25–100 mg/kg intraperitoneal or oral, three weeks
# [14] = tested on: A549 cells; assay: cells; settings: Homo sapiens, A549, 48 h, read-out: IC50 (cytotoxicity)
# [15] = tested on: 4T1-luc breast cancer cells; settings: 1.92 µM, 48 hours
# [16] = tested on: HDAC; settings: Fig. S5, compared to MS275
# [17] = tested on: MMP-9; settings: A549 and H1299 cells, 2.5 µM, 48 hours
# [18] = tested on: 4T1-luc breast cancer cells; settings: 1.92 µM, 48 hours; remark: listed apart in the source
# [19] = tested on: acetylation of histone H3, histone H4, p53 and tubulin; settings: time- and dose-dependent, Western blot
# [20] = tested on: acetylation of histone H3, histone H4 and p53; settings: single dose 50 mg/kg intraperitoneal, after 2 hours
# [21] = target: HDAC8 (Homo sapiens, UniProt Q9BY41); settings: HTPB 1 or 2 µM; class I HDAC from A549 cells
# HDAC8, sequence (Q9BY41 whole entry): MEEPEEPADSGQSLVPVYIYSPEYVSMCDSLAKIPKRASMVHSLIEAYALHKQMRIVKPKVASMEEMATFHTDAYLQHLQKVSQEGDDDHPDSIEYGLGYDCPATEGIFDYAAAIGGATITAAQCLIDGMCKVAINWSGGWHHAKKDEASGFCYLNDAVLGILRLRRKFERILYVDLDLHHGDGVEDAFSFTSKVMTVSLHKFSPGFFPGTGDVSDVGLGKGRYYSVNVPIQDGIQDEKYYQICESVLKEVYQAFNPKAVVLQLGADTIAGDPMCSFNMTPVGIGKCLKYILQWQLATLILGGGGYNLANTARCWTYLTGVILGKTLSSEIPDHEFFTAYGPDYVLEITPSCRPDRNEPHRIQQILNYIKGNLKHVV
# [22] = tested on: H1299 cells; assay: cells; settings: Homo sapiens, NCI-H1299, 48 h, read-out: IC50 (cytotoxicity)
# [23] = tested on: A549 cells; settings: A549, 5 µM, 24 hours
smiles,measurement,setting,value
"O=C(CCCc1ccccc1)Nc1ccc(C(=O)NO)cc1 [HTPB, N-Hydroxy-4-(4-phenylbutyryl-amino)benzamide]",tumor growth inhibition compared with DMSO control,"[1]; intraperitoneal, 25 mg/kg",80%
same,tumor growth inhibition compared with DMSO control,"[1]; intraperitoneal, 50 mg/kg",94%
same,"anti-tumor growth effect, times more potent than SAHA as assessed by tumor weight","[1]; intraperitoneal, tumor weight",2–4 times
same,tumor growth inhibition,[1]; 50 mg/kg,39%
same,tumor growth inhibition,[1]; 100 mg/kg,79%
same,caspase-3 activity,[2],significantly stimulated
same,caspase-9 activity,[2],significantly stimulated
same,deacetylase activity of HDAC6,[3],significantly inhibited
same,deacetylase activity of HDAC4,[4],significantly inhibited
same,"viability at 48 h, 0.5 µM",[5],94%
same,"viability at 48 h, 1 µM",[5],85%
same,lung metastasis of 4T1-luc cells,[6],significantly delayed lung metastasis
same,MMP-2 enzyme activity,[7],significantly decreased
same,"viability at 48 h, 0.5 µM",[8],87%
same,"viability at 48 h, 1 µM",[8],80%
same,deacetylase activity of HDAC11,[9],significantly inhibited
same,RhoA activity (RhoA-GTP),[10],markedly decreased
same,deacetylase activity of HDAC1,[11],significantly inhibited
same,cytotoxicity towards IMR90 normal lung cell line,[12],without showing apparent cytotoxicity
same,effect on body weight,[13],did not adversely affect body weight
same,"toxicity by hematological biochemistry examinations (GOT, GPT, albumin, creatinine)",[13],no detectable toxicity
same,IC50,[14],1590 nM
same,cell viability of 4T1-luc cells,[15],did not change cell viability
same,in vitro HDAC activity compared to MS275,[16],significant inhibition
same,MMP-9 enzyme activity,[17],significantly decreased
same,transwell migration capacities compared to the un-treated control,[18],50%
same,"acetylation of histone H3, histone H4, p53 and tubulin",[19],induced acetylation
same,"acetylation of histone H3, histone H4 and p53 in tumor xenograft",[20],profoundly increased
same,deacetylase activity of HDAC8,[21],significantly inhibited
same,IC50,[22],2190 nM
same,caspase-3 activity,[23],significantly stimulated
same,caspase-9 activity,[23],significantly stimulated
